Patent US12678433B2, “Compounds for treatment of hemolysis-and inflammasome-associated diseases” (New York Blood Center, Inc., priority 2020, dated 2026)

Columns and labels:
HO-1 = HO-1 expression in stimulated B cells; assay type: cell-based, human; conditions: stimulated B cells treated with heme 2.5 or 5 μM
Excerpt: HO-1 is a key enzyme for heme degradation with multiple biologic activities attributed to its enzymatic byproducts. We analyzed HO-1 expression levels in human B cells before and after stimulation with our polyclonal B cell activation cocktail. […] We also found higher HO-1 levels in DOCK8^hi plasma cells (FIG. 8B).

[1] = tested on: splenic B cells from C57BL/6J mice; assay: Mouse B cell differentiation in vitro; assay type: cell-based; conditions: 7 days, hemin 2.5 or 5 μM, different doses of quinine
[2] = tested on: DOCK8/STAT3 signaling pathway; assay: Protein phosphorylation analysis by intracellular flow cytometry in stimulated B cells; assay type: cell-based, human; conditions: heme 10 μM
Description: Protein phosphorylation analysis: B cells were short-term (maximum overnight) stimulated using the same B cell activation cocktail as above in the absence or presence of hemin (10 μM) after which B cells were fixed with the same volume pre-warmed Phosflow Fix buffer I (BD Bioscience) for 10 min at 37° C. After that, cells were washed twice with MACS buffer (400×g, 4° C., 5 min) followed by addition of 0.4 ml Perm buffer Ill (pre-chilled in −20° C., BD Bioscience) for 30 min on ice. After two washes with MACS buffer, samples were stained with staining buffer (anti-Pyk2(pY402), SYK(pY319), SRC(pY418), and STAT3(pY705), 100 fold diluted with MACS buffer) at 4° C. for 45 min, washed and analyzed by flow cytometry.
It has been shown that plasma free-heme can directly bind to DOCK8 protein and inhibit monocyte/macrophage phagocytosis through the DOCK8-Cdc42 signaling pathway. DOCK8/STAT3 signaling pathway activation, leading to phosphorylation of Pky2, SYK, SRC, and STAT3, has also been reported to be critical for B cell activation, although the effect of heme on this activation pathway was not examined. To test whether DOCK8/STAT3 signaling is inhibited by cell-free heme during B cell activation, we analyzed the phosphorylation of Pyk2, SYK, SRC, and STAT3 following short-term stimulation in the presence or absence of heme (10 μM) by intracellular flow cytometric analysis. […]

[3] = tested on: naïve B cells from Allo(−) and Allo(+) SCD patients; assay: 7-day stimulated naïve B cell culture from SCD patients; assay type: cell-based, human; conditions: for inhibition of plasmablast B cell differentiation: heme 5 μM
Description: Human samples. All studies were approved by the institutional Review Boards of the New York Blood Center (NYBC) and Montefiore Health Center. […] The blood samples from SCD patients were processed within 18 hours after collection. For circulating DOCK8 expression studies in healthy controls, peripheral blood samples from de-identified, race-matched healthy donors were used. Leukocyte enriched products from de-identified healthy donors were used for purification of B cells for in vitro culture studies.
Cell isolation and culture. Peripheral blood mononuclear cells (PBMCs) were prepared by Ficoll (GE Healthcare) density gradient centrifugation from healthy donor leukopak products as well as from sickle peripheral blood apheresis waste bags. Human naïve and memory B cells were isolated from PBMCs using a human memory B Cell Isolation Kit (Miltenyi Biotec) by collecting CD27− B cells (naïve B cells) and CD27+ B cell (memory B cells) separately. […] In addition, heme and various inhibitors were added to the cultures at the start point and incubated for 7 days.
Cultured cells: stimulated B cells were transferred into U bottom 96 well plate and washed with 200 μl MACS buffer (D-PBS containing 0.5% BSA and 2 mM EDTA) at 300×g for 5 min at 4° C. After one wash, cells were stained for surface expression of CD19, CD38, CD27 using 25 μl staining buffer (anti-CD19, CD38, CD27 antibodies, diluted 200 fold with MACS buffer) for 30 min at 4° C. After one wash with 200 μl MACS buffer, cells were resuspended in 100 μl D-PBS and 50 μl Fixable Viability Dye eFluor™ 780 (1000 fold diluted with D-PBS, Thermo Fisher Scientific) was added for dead cell detection for 5 min at room temperature. Cells were washed one time with MACS buffer and 100 μl D-DPS was added just before flow cytometric analysis (LSRFortessa flow cytometer, BD Bioscience). For intracellular staining of IgG, Blimp-1 and HO-1, samples were first washed with 200 μl MACS buffer before addition of 150 μl Fixation/Permeabilization buffer (Thermo Fisher Scientific) for 45 min at 4° C. After fixation, samples were washed twice with 1× Permeabilization buffer (Thermo Fisher Scientific) and stained with 25 μl intracellular staining buffer (anti-human IgG, DOCK8, Blimp-1, HO-1 antibodies, diluted 200 fold with 1× Permeabilization buffer) for 45 min at 4° C., after which the cells were washed twice with Permeabilization buffer and 100p D-DPS was added prior to flow cytometric analysis.

SMILES: C=CC1=C(C)c2cc3[n-]c(cc4[n-]c(cc5nc(cc1n2)C(C)=C5C=C)c(C)c4CCC(=O)O)c(CCC(=O)O)c3C.[Fe+2] [heme, iron(III) complex of protoporphyrin IX]
- HO-1 expression (HO-1): further induced
- mouse plasma cell differentiation [1]: did not inhibit
- p-STAT3 ([2]; overnight samples): inhibitory effect
- levels of phosphorylated (p)-Pyk2/SYK/SRC/STAT3 ([2]; short-term stimulation (15 min)): significant reduction
- effect on B cell proliferation, Allo(−) versus Allo(+) patients ([3]; 2.5 or 5 μM hemin): did not differ
- DOCK8hi B cells and CD27hiBlimp-1+ plasma cell differentiation ([3]; Allo(+) SCD patients): not
- inhibition of plasmablast B cell differentiation ([3]; Allo(+) SCD patients): 16%±9.7%
- DOCK8hi B cells and CD27hiBlimp-1+ plasma cell differentiation ([3]; Allo(−) SCD patients): inhibited
- inhibition of plasmablast B cell differentiation ([3]; Allo(−) SCD patients): 58.6%±7.3%
